Reference: patent publication US9593149B2, “Amylin and calcitonin receptor agonist” (Novo Nordisk A/S, priority 2014, dated 2017)
Values after ≈ are worked out from the molar mass of the structure shown. Numbered stars: 1 amine (or outer) side, 2 acyl side, 3 side chain; on linkers, the order of the positions; unused ones are H or OH. Side chains are listed from the residue outwards. Peptide text beside a SMILES is read from it. * marks the point of attachment. C20 diacid = O=C(O)CCCCCCCCCCCCCCCCCCC(=O)*; C18 diacid = O=C(O)CCCCCCCCCCCCCCCCC(=O)*; γGlu = O=C(O)[C@H](CCC(=O)[*:2])N[*:1]

Test: Assay (IV) determination of solubility
Type: physicochemical
Experimental: Assay (IV)—Determination of Solubility
The mimylin peptide was dissolved in water at ˜500 nmol/ml and mixed 1:1 with a series of buffers (100 mM glycylglycine pH 3.0, 100 mM glycylglycine pH 4.0, 100 mM glycylglycine pH 5.0, 100 mM bistrispropane pH 6.0, 100 mM bistrispropane pH 6.5, 100 mM bistrispropane pH 7.0, 100 mM bistrispropane pH 7.5, 100 mM bistrispropane pH 8.0).

Row | Structure (SMILES) | Solubility (pH 3.0) | Solubility (pH 4.0) | Solubility (pH 5.0) | Solubility (pH 6.0) | Solubility (pH 6.5) | Solubility (pH 7.0) | Solubility (pH 7.5) | Solubility (pH 8.0) | solubility at 18 h (pH 5.0) [µM] | solubility at 18 h (pH 4.0) [µM] | solubility at 18 h (pH 6.0) [µM] | solubility at 18 h (pH 6.5) [µM] | solubility at 18 h (pH 7.0) [µM]
1 | CC(C)C[C@H](NC(=O)[C@H](C)NC(=O)[C@H](C)NC(=O)[C@@H](NC(=O)[C@H](CO)NC(=O)[C@H](CC(C)C)NC(=O)[C@H](CCC(=O)O)NC(=O)[C@H](CO)NC(=O)[C@H](C)NC(=O)CC[C@H](NC(=O)CCCCCCCCCCCCCCCCCCC(=O)O)C(=O)O)[C@@H](C)O)C(=O)NCC(=O)N[C@@H](CCCNC(=N)N)C(=O)N[C@@H](CC(C)C)C(=O)N[C@@H](CO)C(=O)N[C@@H](C)C(=O)N[C@@H](CCC(=O)O)C(=O)N[C@@H](CC(C)C)C(=O)N[C@@H](Cc1cnc[nH]1)C(=O)N[C@@H](CCC(=O)O)C(=O)N[C@@H](CC(C)C)C(=O)N[C@@H](C)C(=O)N[C@H](C(=O)N[C@@H](CC(C)C)C(=O)N1CCC[C@H]1C(=O)N[C@@H](CCCNC(=N)N)C(=O)N[C@H](C(=O)N[C@@H](CCC(=O)O)C(=O)N[C@H](C(=O)NCC(=O)N[C@H](C(=O)NCC(=O)N[C@H](C(=O)N1CCC[C@H]1C(N)=O)[C@@H](C)O)[C@@H](C)O)[C@@H](C)O)[C@@H](C)O)[C@@H](C)O [compound 74, [N-terminal(C20 diacid-gGlu), des1, 30T, 31G, 32T]mimylin] ({C20 diacid-γGlu}-ASELSTAALGRLSAELHELATLPRTETGTGTP-NH2) | ≧200 μM | ≧200 μM | ≧200 μM | ≧200 μM | ≧200 μM | ≧200 μM | ≧200 μM | ≧200 μM | – | – | – | – | –
2 | CC(C)C[C@H](NC(=O)CNC(=O)[C@H](CO)NC(=O)[C@H](C)NC(=O)CC[C@H](NC(=O)CCCCCCCCCCCCCCCCCCC(=O)O)C(=O)O)C(=O)N[C@@H](CO)C(=O)N[C@H](C(=O)N[C@@H](C)C(=O)N[C@@H](C)C(=O)N[C@@H](CC(C)C)C(=O)NCC(=O)N[C@@H](CCCNC(=N)N)C(=O)N[C@@H](CC(C)C)C(=O)N[C@@H](CO)C(=O)N[C@@H](CCC(N)=O)C(=O)N[C@@H](CCC(=O)O)C(=O)N[C@@H](CC(C)C)C(=O)N[C@@H](Cc1cnc[nH]1)C(=O)N[C@@H](CCC(=O)O)C(=O)N[C@@H](CC(C)C)C(=O)N[C@@H](CCC(=O)O)C(=O)N[C@H](C(=O)N[C@@H](Cc1ccc(O)cc1)C(=O)N1CCC[C@H]1C(=O)N[C@@H](CCCNC(=N)N)C(=O)N[C@H](C(=O)N[C@@H](CCC(=O)O)C(=O)N[C@H](C(=O)NCC(=O)N[C@@H](CO)C(=O)NCC(=O)N[C@H](C(=O)N[C@@H](Cc1ccc(O)cc1)C(N)=O)[C@@H](C)O)[C@@H](C)O)[C@@H](C)O)[C@@H](C)O)[C@@H](C)O [compound 108, [N-terminal(C20 diacid-gGlu), des1, 4G, 15Q, 21E, 23Y, 30S, 31G, 32T, 33Y]mimylin] ({C20 diacid-γGlu}-ASGLSTAALGRLSQELHELETYPRTETGSGTY-NH2) | ≧200 μM | ≧200 μM | – | ≧200 μM | ≧200 μM | ≧200 μM | ≧200 μM | ≧200 μM | 65 (≈ 250 µg/mL) | – | – | – | –
3 | CC(C)C[C@H](NC(=O)CNC(=O)[C@H](CO)NC(=O)[C@H](C)NC(=O)CC[C@H](NC(=O)CCCCCCCCCCCCCCCCCCC(=O)O)C(=O)O)C(=O)N[C@@H](CO)C(=O)N[C@H](C(=O)N[C@@H](C)C(=O)N[C@H](C(=O)N[C@@H](CC(C)C)C(=O)NCC(=O)N[C@@H](CCCNC(=N)N)C(=O)N[C@@H](CC(C)C)C(=O)N[C@@H](CO)C(=O)N[C@@H](CCC(N)=O)C(=O)N[C@@H](CCC(=O)O)C(=O)N[C@@H](CC(C)C)C(=O)N[C@@H](Cc1cnc[nH]1)C(=O)N[C@@H](CCC(=O)O)C(=O)N[C@@H](CC(C)C)C(=O)N[C@@H](CCC(N)=O)C(=O)N[C@H](C(=O)N[C@@H](CC(C)C)C(=O)N[C@@H](CCC(N)=O)C(=O)N[C@H](C(=O)N[C@@H](Cc1ccc(O)cc1)C(=O)N1CCC[C@H]1C(=O)N[C@@H](CCCNC(=N)N)C(=O)N[C@H](C(=O)N[C@@H](CCC(=O)O)C(=O)N[C@H](C(=O)NCC(=O)N[C@@H](CO)C(=O)N[C@@H](CCC(N)=O)C(=O)N[C@H](C(=O)N[C@@H](Cc1ccc(O)cc1)C(N)=O)[C@@H](C)O)[C@@H](C)O)[C@@H](C)O)[C@@H](C)O)[C@@H](C)O)C(C)C)[C@@H](C)O [compound 130, [N-terminal(C20 diacid-gGlu), des1, 4G, 9V, 15Q, 21Q, 23aQ, 23bT, 23cY, 30S, 31Q, 32T, 33Y]mimylin] ({C20 diacid-γGlu}-ASGLSTAVLGRLSQELHELQTLQTYPRTETGSQTY-NH2) | ≧200 μM | – | – | ≧200 μM | ≧200 μM | ≧200 μM | ≧200 μM | ≧200 μM | 9 (≈ 38.6 µg/mL) | 174 (≈ 746 µg/mL) | – | – | –
4 | CC(C)C[C@H](NC(=O)CNC(=O)[C@H](CO)NC(=O)[C@H](C)N)C(=O)N[C@@H](CO)C(=O)N[C@H](C(=O)N[C@@H](C)C(=O)N[C@@H](C)C(=O)N[C@@H](CC(C)C)C(=O)NCC(=O)N[C@@H](CCCNC(=N)N)C(=O)N[C@@H](CC(C)C)C(=O)N[C@@H](CO)C(=O)N[C@@H](CCC(N)=O)C(=O)N[C@@H](CCC(=O)O)C(=O)N[C@@H](CC(C)C)C(=O)N[C@@H](Cc1cnc[nH]1)C(=O)N[C@@H](CCC(=O)O)C(=O)N[C@@H](CC(C)C)C(=O)N[C@@H](CCC(N)=O)C(=O)N[C@H](C(=O)N[C@@H](Cc1ccc(O)cc1)C(=O)N1CCC[C@H]1C(=O)N[C@@H](CCCNC(=N)N)C(=O)N[C@H](C(=O)N[C@@H](CCC(=O)O)C(=O)N[C@H](C(=O)NCC(=O)N[C@@H](CO)C(=O)N[C@@H](CCCCNC(=O)CC[C@H](NC(=O)CCCCCCCCCCCCCCCCCCC(=O)O)C(=O)O)C(=O)N[C@H](C(=O)N[C@@H](Cc1ccc(O)cc1)C(N)=O)[C@@H](C)O)[C@@H](C)O)[C@@H](C)O)[C@@H](C)O)[C@@H](C)O [compound 107, [des1, 4G, 15Q, 21Q, 23Y, 30S, 31K(C20 diacid-gGlu), 32T, 33Y]mimylin] (H-ASGLSTAALGRLSQELHELQTYPRTETGSK([γGlu-C20 diacid])TY-NH2) | ≧200 μM | ≧200 μM | ≧200 μM | – | – | – | ≧200 μM | ≧200 μM | – | – | 148 (≈ 580 µg/mL) | 129 (≈ 506 µg/mL) | 74 (≈ 290 µg/mL)
5 | CC(C)C[C@H](NC(=O)CNC(=O)[C@H](CO)NC(=O)[C@H](C)NC(=O)CC[C@H](NC(=O)CCCCCCCCCCCCCCCCCCC(=O)O)C(=O)O)C(=O)N[C@@H](CO)C(=O)N[C@H](C(=O)N[C@@H](C)C(=O)N[C@H](C(=O)N[C@@H](CC(C)C)C(=O)NCC(=O)N[C@@H](CCCNC(=N)N)C(=O)N[C@@H](CC(C)C)C(=O)N[C@@H](CO)C(=O)N[C@@H](CCC(N)=O)C(=O)N[C@@H](CCC(=O)O)C(=O)N[C@@H](CC(C)C)C(=O)N[C@@H](Cc1cnc[nH]1)C(=O)N[C@@H](CCC(=O)O)C(=O)N[C@@H](CC(C)C)C(=O)N[C@@H](CCC(N)=O)C(=O)N[C@H](C(=O)N[C@@H](Cc1ccc(O)cc1)C(=O)N1CCC[C@H]1C(=O)N1CCC[C@H]1C(=O)N[C@H](C(=O)N[C@@H](CCC(=O)O)C(=O)N[C@H](C(=O)NCC(=O)N[C@@H](CO)C(=O)N[C@@H](CCC(N)=O)C(=O)N[C@H](C(=O)N[C@@H](Cc1ccc(O)cc1)C(N)=O)[C@@H](C)O)[C@@H](C)O)[C@@H](C)O)[C@@H](C)O)C(C)C)[C@@H](C)O [compound 125, [N-terminal(C20 diacid-gGlu), des1, 4G, 9V, 15Q, 21Q, 23Y, 25P, 30S, 31Q, 32T, 33Y]mimylin] ({C20 diacid-γGlu}-ASGLSTAVLGRLSQELHELQTYPPTETGSQTY-NH2) | ≧200 μM | – | ≧200 μM | ≧200 μM | ≧200 μM | ≧200 μM | ≧200 μM | ≧200 μM | – | 28 (≈ 109 µg/mL) | – | – | –
6 | CC(C)C[C@H](NC(=O)[C@H](C)NC(=O)[C@H](C)NC(=O)[C@@H](NC(=O)[C@H](CO)NC(=O)[C@H](CC(C)C)NC(=O)[C@H](CCC(=O)O)NC(=O)[C@H](CO)NC(=O)[C@H](C)NC(=O)CC[C@H](NC(=O)CCCCCCCCCCCCCCCCC(=O)O)C(=O)O)[C@@H](C)O)C(=O)NCC(=O)N[C@@H](CCCNC(=N)N)C(=O)N[C@@H](CC(C)C)C(=O)N[C@@H](CO)C(=O)N[C@@H](C)C(=O)N[C@@H](CCC(=O)O)C(=O)N[C@@H](CC(C)C)C(=O)N[C@@H](Cc1cnc[nH]1)C(=O)N[C@@H](CCC(=O)O)C(=O)N[C@@H](CC(C)C)C(=O)N[C@@H](C)C(=O)N[C@H](C(=O)N[C@@H](CC(C)C)C(=O)N1CCC[C@H]1C(=O)N[C@@H](CCCNC(=N)N)C(=O)N[C@H](C(=O)N[C@@H](CCC(=O)O)C(=O)N[C@H](C(=O)NCC(=O)N[C@@H](CO)C(=O)NCC(=O)N1CCC[C@H]1C(=O)N1CCC[C@H]1C(N)=O)[C@@H](C)O)[C@@H](C)O)[C@@H](C)O [compound 75, [N-terminal(C18 diacid-gGlu), des1, 30S, 31G, 32P]mimylin] ({C18 diacid-γGlu}-ASELSTAALGRLSAELHELATLPRTETGSGPP-NH2) | ≧200 μM | ≧200 μM | ≧200 μM | ≧200 μM | ≧200 μM | ≧200 μM | ≧200 μM | ≧200 μM | – | – | – | – | –
